PMC9753400, “Conformational alteration in glycan induces phospholipase Cβ1 activation and angiogenesis” (Journal of Biomedical Science, 2022)
One block for each molecule: values may come before it.

What was measured:
[1] = biological target: T1, TRAX (translin-associated factor X) (Homo sapiens, UniProt Q99598); assay: SPR (Biacore X), TRAX amine-coupled to CM5 chip; format: binding; settings: HBS-P running buffer, GSL diluted from methanol stock
T1 construct: gene TSNAX; full-length, cDNA from HUVEC mRNA, pET-21d, nine-histidine tag (text says N-terminal; His codons printed in the R'-primer), expressed in E. coli BL21 (DE3), HisTrap / DEAE / SP-Sepharose; immobilised on CM5 chip
T1 sequence (Q99598 1-290): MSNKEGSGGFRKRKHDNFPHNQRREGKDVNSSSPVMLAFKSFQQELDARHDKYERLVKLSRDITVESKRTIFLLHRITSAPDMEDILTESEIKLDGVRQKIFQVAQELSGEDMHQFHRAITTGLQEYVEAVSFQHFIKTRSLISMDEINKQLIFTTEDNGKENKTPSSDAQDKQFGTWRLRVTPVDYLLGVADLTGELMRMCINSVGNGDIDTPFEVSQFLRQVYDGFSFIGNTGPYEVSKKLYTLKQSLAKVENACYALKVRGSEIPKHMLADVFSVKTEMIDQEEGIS

[2] = biological target: T2, recombinant human full-length translin-associated factor X (TRAX) (human, UniProt Q99598 1-290); assay: SPR; Biacore X; TRAX amine-coupled to CM5 chip (about 2500 RU), PLCβ1-C flowed over, HBS-P running buffer; competition runs with PLCβ1-C 360 nM plus 0, 1 or 9 μM GHCer; settings: both partners purified
T2 construct: translin-associated factor X (TRAX), human, full length, cDNA from HUVECs, in pET-21d; Removal of the tag is not mentioned; also called recombinant TRAX; wild-type TRAX; source: E. coli BL21 (DE3) pLys, purified (HisTrap FF, DEAE-Sepharose, SP-Sepharose)
T2 sequence (looked up): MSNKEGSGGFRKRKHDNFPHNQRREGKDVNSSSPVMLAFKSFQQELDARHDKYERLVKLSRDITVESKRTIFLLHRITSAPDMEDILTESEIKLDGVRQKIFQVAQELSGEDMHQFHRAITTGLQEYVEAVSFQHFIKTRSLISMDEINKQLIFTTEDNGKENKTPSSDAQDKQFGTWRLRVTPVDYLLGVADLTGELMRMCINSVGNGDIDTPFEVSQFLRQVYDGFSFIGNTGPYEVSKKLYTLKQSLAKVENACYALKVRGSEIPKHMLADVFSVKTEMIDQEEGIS

Kd ([1]; tested at 10 μM): > 10 µM
Molecule: Galβ1 → 3GalNAcβ1 → 3Galα1 → 4Galβ1 → 4Glcβ1-ceramide [SSEA3Cer]

Kd ([1]; competes with PLCβ1 C-terminal domain): 0.0409 µM
Molecule: Fucα1 → 2Galβ1 → 3GalNAcβ1 → 3Galα1 → 4Galβ1 → 4Glcβ1-ceramide [GHCer]

Kd [2]: ~7.5 µM
B1: recombinant C-terminal domain of PLCβ1 (PLCβ1-C), amino acids 890 to 1161 (domain or fragment, human, UniProt Q9NQ66 890-1161, looked up)
chain: APAKTEDLIQSVLTEVEAQTIEELKQQKSFVKLQKKHYKEMKDLVKRHHKKTTDLIKEHTTKYNEIQNDYLRRRAALEKSAKKDSKKKSEPSSPDHGSSTIEQDLAALDAEMTQKLIDLKDKQQQQLLNLRQEQYYSEKYQKREHIKLLIQKLTDVAEECQNNQLKKLKEICEKEKKELKKKMDKKRQEKITEAKSKDKSQMEEEKTEMIRSYIQEVVQYIKRLEEAQSKRQEKLVEKHKEIRQQILDEKPKLQVELEQEYQDKFKRLPLEI
notes: phospholipase C β1 (PLCβ1), human, C-terminal domain, residues 890-1161, cDNA from HUVECs, in pET-21d; Removal of the tag is not mentioned; also called recombinant C-terminus of PLCβ1; source: E. coli BL21 (DE3) pLys, purified (HisTrap FF, DEAE-Sepharose, SP-Sepharose)
